Assay results published in patent US20250084039A1, “4-SUBSTITUTED AMINOISOQUINOLINE DERIVATIVES” (Purdue Research Foundation, priority 2016, published 2025).
Like-named read-outs stand apart in the source and are kept apart here. Blank lines part the entries; values can stand above or below the compound they belong to.

Tests used:
[1] = biological target: BTK (Homo sapiens (Human), UniProt Q06187); assay: Reaction Biology HotSpot kinase assay; assay type: biochemical; settings: 500 nM compound; read-out: Percentage kinase inhibition BTK
Description: (§1) The Reaction Biology Corporation (www.reactionbiology.com, Malvern, PA) HotSpot assay platform was used to measure kinase/inhibitor interactions exactly as previously described. Kinase and substrate were mixed in a buffer containing 20 mM HEPES pH 7.5, 10 mM MgCl2, 1 mM EGTA, 0.02% Brij35, 0.02 mg/mL BSA, 0.1 mM Na3VO4, 2 mM DTT and 1% DMSO. Single-dose of compounds (500 nM) were then added to each reaction mixture. After 20-minute incubation. ATP (Sigma) and [γ-^33P] ATP (Perkin Elmer) were added at a final total concentration of 100 μM for addition 2 hours at room temperature, followed by spotting onto P81 ion exchange cellulose chromatography paper (Whatman, Inc.). […] Percent remaining kinase activity of a vehicle (DMSO) containing kinase reaction was calculated for each kinase/inhibitor pair using Prism 5 (GraphPad).
as §1, with “1” for “DTT”, “incubation,” for “incubation.”

[2] = system: MiaPaca-2; assay: IC50 proliferation assay (Alamar Blue, 72 h); assay type: cell-based; settings: Homo sapiens, MIA PaCa-2; read-out: IC50 MiaPaca-2 (pancreatic cell line)
In short: (§2)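 Cells seeded ~18 h before treatment with semi-serial compound dilutions made in DMSO then growth medium. After 72 h exposure, Alamar Blue added and read following 4 h further at 37 °C; IC50 for proliferation inhibition.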

[3] = system: MV4-11; assay: IC50 proliferation assay (Alamar Blue, 72 h); assay type: cell-based; settings: read-out: IC50 (proliferation inhibition) Cell line - MV4-11
In short: as §2

[4] = system: HLY-1; assay: IC50 proliferation assay (Alamar Blue, 72 h); assay type: cell-based; settings: read-out: IC50 HLY-1 (lymphoma cell line)
In short: as §2

[5] = system: MV4-11; assay: IC50 determination (proliferation assay, CellTiter-Blue); assay type: cell-based
Description: (§3) Cell lines were seeded into 96-well plates the afternoon prior to treatment. Approximately 18 hours later, compounds were diluted in dimethyl sulfoxide (DMSO) and added to cells. Plates were incubated for 72 hours and cells viability determined with CellTiter-Blue Cell Viability Assay (Promega, Madison, WI). Plates were read after 4 additional hours of incubation at 37° C. using plate reader (Bio-Tek, Winooski. VT). Data was analyzed and graphed using GraphPad Prism Software (Graphpad. La Jolla, CA). […]

[6] = system: MOLM14; assay: as above; assay type: cell-based
Description: as §3

[7] = biological target: FLT3 ITD (Homo sapiens, UniProt P36888); assay: DiscoverX Kd Elect binding
FLT3 ITD, sequence (P36888 whole entry, looked up, change not shown): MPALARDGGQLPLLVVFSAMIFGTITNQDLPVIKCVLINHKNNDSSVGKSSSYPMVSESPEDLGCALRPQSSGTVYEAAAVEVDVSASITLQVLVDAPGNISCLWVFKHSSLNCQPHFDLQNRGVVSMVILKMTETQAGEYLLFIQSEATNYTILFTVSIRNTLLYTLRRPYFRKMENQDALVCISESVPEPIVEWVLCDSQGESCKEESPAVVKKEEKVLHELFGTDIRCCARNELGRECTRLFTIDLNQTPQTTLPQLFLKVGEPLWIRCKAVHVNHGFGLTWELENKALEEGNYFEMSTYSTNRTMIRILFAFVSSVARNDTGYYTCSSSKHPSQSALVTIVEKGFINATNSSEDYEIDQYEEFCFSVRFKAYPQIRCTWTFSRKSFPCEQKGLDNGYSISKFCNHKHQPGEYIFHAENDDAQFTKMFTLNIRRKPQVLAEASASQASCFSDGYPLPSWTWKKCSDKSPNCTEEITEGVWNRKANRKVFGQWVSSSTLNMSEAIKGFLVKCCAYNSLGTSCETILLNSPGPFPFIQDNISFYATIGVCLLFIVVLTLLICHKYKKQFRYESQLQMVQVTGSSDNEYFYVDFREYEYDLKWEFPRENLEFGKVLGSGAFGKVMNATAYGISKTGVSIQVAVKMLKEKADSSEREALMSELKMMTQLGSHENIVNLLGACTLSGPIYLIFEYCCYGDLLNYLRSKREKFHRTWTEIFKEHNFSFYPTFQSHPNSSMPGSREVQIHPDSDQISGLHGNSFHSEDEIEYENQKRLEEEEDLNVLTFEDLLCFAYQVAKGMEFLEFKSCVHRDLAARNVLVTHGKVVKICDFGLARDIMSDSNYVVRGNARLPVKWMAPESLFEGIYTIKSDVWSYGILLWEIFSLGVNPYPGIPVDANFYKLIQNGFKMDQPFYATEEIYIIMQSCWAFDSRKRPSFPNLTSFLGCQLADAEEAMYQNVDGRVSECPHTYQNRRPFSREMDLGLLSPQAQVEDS
From the text: (§4) Although the current drugs on the market or in clinical trials are relatively successful in killing the AML leukemia cells, they currently are unable to deal with secondary mutations that occur after TKI treatment, such as FLT3 ([…]).

[8] = system: HCT116; assay: Proliferation inhibition at single concentration (CellTiter-Blue); assay type: cell-based; settings: 1 μM compound
[9] = system: MCF-7; assay: as above; assay type: cell-based; settings: 1 μM compound
[10] = system: HeLa; assay: as above; assay type: cell-based; settings: 1 μM compound
[11] = biological target: FGFR1 (Homo sapiens (Human), UniProt P11362); assay: Reaction Biology HotSpot kinase assay; assay type: biochemical; settings: 500 nM compound
Description: as §1
as §1, with “1” for “DTT”, “incubation,” for “incubation.”

[12] = biological target: RET (Homo sapiens (Human), UniProt P07949); assay: Reaction Biology HotSpot kinase assay; assay type: biochemical; settings: 500 nM compound
RET, sequence (P07949 29-1114): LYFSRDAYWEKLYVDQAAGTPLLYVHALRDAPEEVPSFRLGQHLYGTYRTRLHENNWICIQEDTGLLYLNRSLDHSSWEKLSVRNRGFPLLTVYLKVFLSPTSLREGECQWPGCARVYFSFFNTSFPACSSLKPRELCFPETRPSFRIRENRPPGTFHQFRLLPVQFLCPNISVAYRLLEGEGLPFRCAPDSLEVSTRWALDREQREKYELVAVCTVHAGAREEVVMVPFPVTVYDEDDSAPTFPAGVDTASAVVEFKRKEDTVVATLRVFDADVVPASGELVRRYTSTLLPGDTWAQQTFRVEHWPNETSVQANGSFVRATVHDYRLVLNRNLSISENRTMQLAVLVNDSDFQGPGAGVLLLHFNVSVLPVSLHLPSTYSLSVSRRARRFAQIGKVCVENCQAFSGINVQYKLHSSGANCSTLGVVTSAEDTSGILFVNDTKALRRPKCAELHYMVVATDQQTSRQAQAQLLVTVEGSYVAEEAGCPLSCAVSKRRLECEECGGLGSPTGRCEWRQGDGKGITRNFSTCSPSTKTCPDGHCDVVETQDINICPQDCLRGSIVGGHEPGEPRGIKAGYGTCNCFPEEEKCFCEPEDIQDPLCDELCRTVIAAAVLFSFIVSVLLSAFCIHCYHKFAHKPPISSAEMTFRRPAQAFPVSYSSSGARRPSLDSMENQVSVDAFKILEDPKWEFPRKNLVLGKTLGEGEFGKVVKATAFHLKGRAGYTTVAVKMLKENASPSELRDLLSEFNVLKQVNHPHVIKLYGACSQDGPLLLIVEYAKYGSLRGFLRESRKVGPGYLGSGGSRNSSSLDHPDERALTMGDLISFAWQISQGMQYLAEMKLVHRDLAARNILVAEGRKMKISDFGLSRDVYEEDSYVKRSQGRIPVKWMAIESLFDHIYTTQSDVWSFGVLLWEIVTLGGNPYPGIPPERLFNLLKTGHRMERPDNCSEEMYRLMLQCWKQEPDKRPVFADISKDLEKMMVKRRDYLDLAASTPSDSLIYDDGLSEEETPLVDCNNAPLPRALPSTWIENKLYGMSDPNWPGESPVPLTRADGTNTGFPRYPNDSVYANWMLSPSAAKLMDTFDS
Description: as §1
as §1, with “1” for “DTT”, “incubation,” for “incubation.”

[13] = biological target: c-Src (Homo sapiens (Human), UniProt P12931); assay: Reaction Biology HotSpot kinase assay; assay type: biochemical; settings: 500 nM compound
c-Src, sequence (P12931 whole entry, looked up): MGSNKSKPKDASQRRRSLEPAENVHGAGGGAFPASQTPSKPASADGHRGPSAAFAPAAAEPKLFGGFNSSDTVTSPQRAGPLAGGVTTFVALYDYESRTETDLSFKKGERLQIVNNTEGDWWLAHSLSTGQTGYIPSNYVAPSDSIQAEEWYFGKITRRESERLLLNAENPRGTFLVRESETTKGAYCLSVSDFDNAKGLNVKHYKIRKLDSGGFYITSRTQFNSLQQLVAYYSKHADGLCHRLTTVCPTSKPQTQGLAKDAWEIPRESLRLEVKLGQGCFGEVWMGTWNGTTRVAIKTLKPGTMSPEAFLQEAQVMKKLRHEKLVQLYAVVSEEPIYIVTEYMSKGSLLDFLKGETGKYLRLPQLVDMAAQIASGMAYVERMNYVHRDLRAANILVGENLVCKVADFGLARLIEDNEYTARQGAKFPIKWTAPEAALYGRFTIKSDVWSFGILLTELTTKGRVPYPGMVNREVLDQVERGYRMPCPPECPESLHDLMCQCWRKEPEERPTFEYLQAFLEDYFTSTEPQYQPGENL
Description: as §1
as §1, with “1” for “DTT”, “incubation,” for “incubation.”

[14] = system: MV-4-11; assay: Proliferation inhibition at single concentration (CellTiter-Blue); assay type: cell-based; settings: 1 μM compound
[15] = biological target: FLT3 (Homo sapiens (Human), UniProt P36888); assay: DiscoverX Kd Elect binding
FLT3, sequence (P36888 27-993): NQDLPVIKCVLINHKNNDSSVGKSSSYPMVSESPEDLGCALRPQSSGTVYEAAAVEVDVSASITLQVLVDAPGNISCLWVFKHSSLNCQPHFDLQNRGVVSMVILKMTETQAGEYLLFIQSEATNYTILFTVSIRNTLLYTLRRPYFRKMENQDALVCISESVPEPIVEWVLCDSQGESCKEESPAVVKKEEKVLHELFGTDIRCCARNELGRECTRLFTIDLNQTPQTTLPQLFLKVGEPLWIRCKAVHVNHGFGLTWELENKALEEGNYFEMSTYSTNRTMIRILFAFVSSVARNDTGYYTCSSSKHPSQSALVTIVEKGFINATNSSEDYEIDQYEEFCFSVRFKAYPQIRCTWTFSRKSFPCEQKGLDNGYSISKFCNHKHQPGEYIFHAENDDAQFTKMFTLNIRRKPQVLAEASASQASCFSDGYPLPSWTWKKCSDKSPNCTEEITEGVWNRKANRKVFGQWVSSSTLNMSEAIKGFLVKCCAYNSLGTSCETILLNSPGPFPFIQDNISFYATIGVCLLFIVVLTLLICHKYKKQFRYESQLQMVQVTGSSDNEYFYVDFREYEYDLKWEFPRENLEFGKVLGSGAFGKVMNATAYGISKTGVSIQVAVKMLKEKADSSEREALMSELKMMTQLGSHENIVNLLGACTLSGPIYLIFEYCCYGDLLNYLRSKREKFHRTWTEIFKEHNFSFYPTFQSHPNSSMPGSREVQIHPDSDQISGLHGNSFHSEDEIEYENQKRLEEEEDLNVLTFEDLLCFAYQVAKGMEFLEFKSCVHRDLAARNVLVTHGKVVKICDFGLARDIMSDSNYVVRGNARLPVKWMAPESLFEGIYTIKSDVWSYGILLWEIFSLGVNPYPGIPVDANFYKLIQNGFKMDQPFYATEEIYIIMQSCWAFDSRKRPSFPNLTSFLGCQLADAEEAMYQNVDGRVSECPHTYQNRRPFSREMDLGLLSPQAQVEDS
From the text: as §4
HCK is expressed more in human primary leukemic stem cells than in human normal hematopoietic stem cells. […] Other protein kinases such as SYK, BRAF, p38 (p38MAPK), PDGFRα/β, FGFR1, RET, FLT4, Tie2 have also been linked to leukemia. […] (Table 9). The inhibition of the Src-kinase family could be important clinically because these kinases are downstream of FLT3. In the event of FLT3 mutation, the inhibition of the Src-family kinases could still lead to proliferation inhibition.

[16] = system: K562; assay: IC50 proliferation assay (Alamar Blue, 72 h); assay type: cell-based
[17] = system: MV4-11; assay: Anti-proliferative effects in leukemia panel; assay type: cell-based; settings: for IC50: Homo sapiens, MV4-11, read-out: Anti-proliferative effects in leukemia panel (μM) MV4-11
Description: Molm-14 cells were the kind gift of Dr. Mark Levis from Johns Hopkins University. […] Cell lines were grown and maintained according to ATCC recommendations.
(§5) Cell lines were seeded into 96-well plates the afternoon prior to treatment. Approximately 18 hours later, compounds were semi-serially diluted in dimethyl sulfoxide (DMSO) and then growth medium, and added to cells. Plates were incubated for 72 hours prior to addition of Alamar Blue (Life Technologies. Carlsbad, CA). Plates were read after 4 additional hours of incubation at 37° C. using a Bio-Tek Synergy HT plate reader (Bio-Tek, Winooski. VT). Data was analyzed and graphed using GraphPad Prism Software (Graphpad. La Jolla, CA).

[18] = system: FLT3 phosphorylation; assay: Western blot in MV4-11; assay type: cell-based, human
Description: Total protein extracts were prepared using RIPA buffer (SIGMA) supplemented with Complete Mini™ protease inhibitor and PHOStop™ phosphatase inhibitors (Roche). […] The membrane was blocked with 5% dry milk in 1×TBS/0.1% Tween 20 (TBST) for at least 1 h at room temperature and incubated with human specific primary antibodies: FLT3, Phospho-FLT3, c-Myc (Cell Signaling Technologies), KRAS (Santa Cruz), or mouse anti-β-actin (SIGMA) overnight at 4° C. The membrane was washed 3 times in TBST and incubated with a horseradish peroxidase-conjugated secondary anti-rabbit or anti-mouse antibody (Cell Signaling Technologies) for 1 h at room temperature. Blots were again washed and the signal was detected with SuperSignal West Femto Chemiluminescent Substrate (Pierce) and exposed to HyBlot CL® autoradiography film (Denville).

[19] = system: THP-1; assay: Anti-proliferative effects in leukemia panel; assay type: cell-based; settings: Homo sapiens
Description: (§6) Molm-14 cells were the kind gift of Dr. Mark Levis from Johns Hopkins University. THP-1, MV4-11, K-562 and MRC-5A cells were purchased from ATCC (ATCC, Manassas, VA). All cell lines were grown in 37° C. with 5% CO2 atmosphere with RPMI 1640 (Life technologies, Carlsbad. CA) supplemented with heat-inactivated 10% (V/V) fetal bovine serum. Cell lines were grown and maintained according to ATCC recommendations.
as §5

[20] = system: K-562; assay: Anti-proliferative effects in leukemia panel; assay type: cell-based; settings: Homo sapiens, K562
Description: as §6, §5

[21] = system: MOLM14; assay: Anti-proliferative effects in leukemia panel; assay type: cell-based; settings: for IC50: Homo sapiens, MOLM-14
Description: as §6, §5

[22] = biological target: TRKC (Homo sapiens (Human), UniProt Q16288); assay: Reaction Biology HotSpot kinase assay; assay type: biochemical; settings: 500 nM compound, 100 μM radiolabeled ATP
Description: as §1
as §1, with “1” for “DTT”, “incubation,” for “incubation.”

[23] = biological target: c-kit (Homo sapiens (Human), UniProt P10721); assay: Reaction Biology HotSpot kinase assay; assay type: biochemical; settings: 500 nM compound, 100 μM radiolabeled ATP
c-kit, sequence (P10721 26-976): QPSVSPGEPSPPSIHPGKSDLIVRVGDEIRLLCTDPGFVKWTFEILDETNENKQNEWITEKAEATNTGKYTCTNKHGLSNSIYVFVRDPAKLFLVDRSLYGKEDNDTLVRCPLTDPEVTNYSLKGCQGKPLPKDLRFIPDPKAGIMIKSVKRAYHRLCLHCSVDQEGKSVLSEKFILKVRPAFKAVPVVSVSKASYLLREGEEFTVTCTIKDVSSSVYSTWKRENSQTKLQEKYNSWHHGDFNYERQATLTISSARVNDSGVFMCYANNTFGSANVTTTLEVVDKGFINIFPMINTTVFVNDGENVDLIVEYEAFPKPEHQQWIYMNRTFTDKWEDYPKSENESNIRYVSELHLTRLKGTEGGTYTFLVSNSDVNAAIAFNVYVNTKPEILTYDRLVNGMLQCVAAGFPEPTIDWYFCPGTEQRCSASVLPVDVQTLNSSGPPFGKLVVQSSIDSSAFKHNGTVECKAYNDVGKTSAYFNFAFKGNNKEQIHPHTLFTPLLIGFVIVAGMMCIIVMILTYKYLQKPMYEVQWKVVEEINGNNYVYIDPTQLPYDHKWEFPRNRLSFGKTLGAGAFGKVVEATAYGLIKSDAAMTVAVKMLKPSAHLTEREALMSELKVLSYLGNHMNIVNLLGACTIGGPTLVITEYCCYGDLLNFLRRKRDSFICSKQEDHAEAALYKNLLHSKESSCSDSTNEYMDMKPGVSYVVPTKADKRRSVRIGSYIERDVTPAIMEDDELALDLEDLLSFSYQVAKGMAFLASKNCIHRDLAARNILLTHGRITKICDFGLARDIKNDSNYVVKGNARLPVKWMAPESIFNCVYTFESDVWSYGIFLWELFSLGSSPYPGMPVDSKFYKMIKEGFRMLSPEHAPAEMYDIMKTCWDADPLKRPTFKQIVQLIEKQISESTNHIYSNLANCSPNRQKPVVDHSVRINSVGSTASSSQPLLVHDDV
Description: as §1
as §1, with “1” for “DTT”, “incubation,” for “incubation.”

[24] = system: MV4-11; assay: Activity against AML cell line MV4-11 (CellTiter-Blue, 72 h); assay type: cell-based; settings: Homo sapiens, MV4-11, 72 h; read-out: IC50 against MV4-11/uM
Description: Cells were added to 96 well plates at 2000 cells per well for adherent lines and 4000 cells per well for suspension lines and kept in an incubator overnight. The following day the plates were treated with compounds to give rise to the final concentrations of; 100 μM, 10 μM, 5 μM 1 μM, 500 nM, 100 nM, 10 nM, […]. The plates were then stored in the incubator for 72 hours. On the third day the cells were assayed with 20 μL of CellTiter—Blue Cell Viability Assay per well and were incubated for 4 hours. After 4 hours' fluorescence intensity was taken on a plate reader: Excitation: 560/10 Emission: 590/10. IC50 analysis was performed on GraphPad Prism 7.

[25] = system: STAT5 phosphorylation; assay: Western blot in MV4-11; assay type: cell-based, human
Description: Effect of HSW630-1 on protein expression was tested in the MV4-11 leukemia cell line. Total protein extracts were prepared using RIPA buffer (SIGMA) supplemented with Complete Mini™ protease inhibitor and PHOStop™ phosphatase inhibitors (Roche). Equal amounts of proteins (up to 25 μg) were separated on 4-12% NuPAGE gels in 1×MOPS or 1×MES buffer (Invitrogen) and transferred onto PVDF membranes (Millipore). The membrane was blocked with 5% dry milk in 1×TBS/0.1% Tween 20 (TBST) for at least 1 h at room temperature and incubated with human specific primary antibodies: FLT3, Phospho-FLT3, c-Myc (Cell Signaling Technologies), KRAS (Santa Cruz), or mouse anti-β-actin (SIGMA) overnight at 4° C. The membrane was washed 3 times in TBST and incubated with a horseradish peroxidase-conjugated secondary anti-rabbit or anti-mouse antibody (Cell Signaling Technologies) for 1 h at room temperature. Blots were again washed and the signal was detected with SuperSignal West Femto Chemiluminescent Substrate (Pierce) and exposed to HyBlot CL® autoradiography film (Denville).
To determine if the phosphorylation of FLT3, SRC kinase and downstream effectors or kinases (such as STAT3 [44], STAT5 [45] and p-38 [46]) could be affected by the compounds. […] The level of SRC kinase increased over time (amount at the 48 h time point is greater than at the 6 and 24 h time points). Unfortunately the bands for the phosphorylated SRC kinase are blurred despite repeated attempts to get clearer bands. […] From the above Western analyses, it is confirmed that the proliferation inhibition of MV4-11 is due to the inhibition of FLT3 signaling axis.

[26] = system: HL60; assay: Anti-proliferative effects in leukemia panel; assay type: cell-based; settings: Homo sapiens, HL-60
[27] = system: NCI H1703 (NSCLC); assay: Activity against lung cancer cell line; assay type: cell-based
[28] = biological target: FLT3 (ITD, F691L) (Homo sapiens, UniProt P36888, F691L/ITD); assay: DiscoverX Kd Elect binding; settings: read-out: Kd FLT3 (ITD, F691L)
FLT3 (ITD, F691L), sequence (P36888 whole entry, looked up, stated change not applied): as the sequence (P36888 whole entry, looked up, change not shown) above

[29] = system: MV4-11; assay: In vivo efficacy, NSG mice injected with MV4-11; settings: 25 mg/kg, three times per week, NSG mice with MV4-11
Description: Method: Six week old female NSG mice were injected intravenously with 1×10^6 logarithmically growing MV4-11 cells expressing luciferase (MV4-11). Luciferase expressing leukemia cells were imaged using the IVIS Xenogen system (Perkin Elmer, Waltham MA). On day of imaging, mice are injected IP with 150 mg/kg luciferin (Perkin Elmer, Waltham, MA), anaesthetized and then placed in imaging chamber. Maximal luminescence is recorded and then averaged among each treatment group. Ten days post cell injection, mice were imaged and then sorted into groups so that leukemic burden was similar and dosing started. Mice were dosed either with vehicle (10% DMSO/10% Tween 20/80% saline) or 25 mg/kg of compounds three times per week for the duration of the experiment. Mice were weighed and observed five days per week and imaged once per week.

[30] = biological target: FLT3 (ITD) (Homo sapiens, UniProt P36888, ITD); assay: DiscoverX Kd Elect binding; settings: read-out: Kd FLT3 (ITD)
FLT3 (ITD), sequence (P36888 whole entry, looked up, change not shown): as above
From the text: as §4

Compound: Nc1ncc2ccc(Cl)cc2c1C#Cc1ccc(C2=NCCN2)cc1 [HSM1651, 6-chloro-4-((4-(4,5-dihydro-1H-imidazol-2-yl)phenyl)ethynyl)isoquinolin-3-amine]
anti-proliferative activity in words, MV4-11 / AML cell lines [17]: good inhibitor
IC50 [17]: 0.05 ± 0.01 µM
FLT3 phosphorylation (Western) [18]: reduced
IC50 [19]: 1.85 µM
IC50 [20]: 1.39 µM
anti-proliferative activity in words, MOLM-14 [21]: good inhibitor
IC50 [21]: 0.11 µM
inhibition at 0.5 µM [22]: 64%
inhibition at 0.5 µM [23]: 83%
IC50 [24]: 0.008 µM
STAT5 phosphorylation (Western) [25]: reduced
IC50 [26]: 3.05 µM

Compound: Cc1ncc(C(=O)Nc2ccc(CN3CCN(C)CC3)c(C(F)(F)F)c2)cc1C#Cc1c(N)ncc2ccc(F)cc12 [HSN431]
IC50 [27]: 247 nM
IC50 [5]: < 1 nM
Kd [7]: 4.8 nM
Kd [28]: 57 nM
in-vivo efficacy (survival) [29]: efficacious

Compound: Cc1ncc(C(=O)Nc2ccc(CN3CCN(C)CC3)c(C(F)(F)F)c2)cc1C#Cc1cnc(N)c2ccccc12 [HSN461, 5-((1-aminoisoquinolin-4-yl)ethynyl)-6-methyl-N-(4-((4-methylpiperazin-1-yl)methyl)-3-(trifluoromethyl)phenyl)nicotinamide]
IC50 ([27]; Homo sapiens, NCI-H1703): 157 nM
IC50 ([5]; Homo sapiens, MV4-11): < 1 nM
Kd [30]: 7.9 nM
Kd [28]: 91 nM

Second part, led by results:

inhibition at 0.5 µM [1]: 70%
IC50 [2]: 400 nM
IC50 ([3]; Homo sapiens, MV4-11, 72 h): 25 nM
Compound: CC1(C)CNC(c2ccc(C#Cc3cc(N)nc4ccccc34)cc2F)=N1 [HSM1856, 4-((4-(4,4-dimethyl-4,5-dihydro-1H-imidazol-2-yl)-3-fluorophenyl)ethynyl)quinolin-2-amine]
IC50 [4]: 80 nM

IC50 [5]: 144 ± 2.6 nM
IC50 [6]: 187 ± 5.5 nM
Kd [7]: 450 nM
Percentage kinase inhibition FGFR1 [11]: 3%
Percentage kinase inhibition RET [12]: 0%
Percentage kinase inhibition c-Src [13]: 1%
Kd [15]: 53 nM
IC50 ([3]; 72 h): 171 nM
IC50 ([16]; 72 h, read-out: IC50 (proliferation inhibition) Cell line - K562): 1440 nM
IC50 ([16]; Table 18, read-out: Inhibition of proliferation of K562 cell lines (CML)): 1443 ± 0.21 nM
Compound: Cc1ccc(C(=O)NCC(O)CN(C)C)cc1C#Cc1c(N)ncc2ccc(Cl)cc12 (stereo not drawn) [HSN178]
proliferation inhibition in words, MV4-11 / AML [5]: only moderate inhibitors
Percent inhibition of proliferation HCT116 [8]: 97%
Percent inhibition of proliferation MCF-7 [9]: 100%
Percent inhibition of proliferation HeLa [10]: 100%
Percent inhibition of proliferation MV-4-11 [14]: 98%

IC50 [17]: 0.15 ± 0.01 µM
IC50 [19]: 1.2 µM
IC50 [20]: 3 µM
IC50 [21]: 0.15 ± 0.01 µM
inhibition at 0.5 µM [23]: 68%
Compound: N=C(N)c1ccc(/N=N/c2c(N)ncc3ccc(Br)cc23)cc1 [HSW630-1]
